Here are results for 21 compounds from ChEMBL document CHEMBL5053493, “Design and synthesis of novel orally selective and type II pan-TRK inhibitors to overcome mutations by property-driven optimization” (Eur J Med Chem, 2021).

SMILES strings stand for the structures. A value given as a limit tells only on which side of the number the result lay.

The target of one assay is T1, Aurora kinase A (Homo sapiens, UniProt O14965).
T1 sequence (O14965 whole entry): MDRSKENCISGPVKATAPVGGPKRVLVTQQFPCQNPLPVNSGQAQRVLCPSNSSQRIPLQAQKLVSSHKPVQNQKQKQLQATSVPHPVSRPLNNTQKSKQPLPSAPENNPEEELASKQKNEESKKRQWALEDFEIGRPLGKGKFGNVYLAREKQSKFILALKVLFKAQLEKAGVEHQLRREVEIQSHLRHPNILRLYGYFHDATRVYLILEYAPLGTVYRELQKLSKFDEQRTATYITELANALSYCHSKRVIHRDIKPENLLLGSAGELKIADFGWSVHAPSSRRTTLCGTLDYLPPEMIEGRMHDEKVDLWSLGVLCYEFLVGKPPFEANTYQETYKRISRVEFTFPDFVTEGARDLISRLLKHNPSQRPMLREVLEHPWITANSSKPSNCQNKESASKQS
The assay is described as follows: biochemical.

Another assay relates to KM12. The assay is described as follows: Antiproliferative activity against human KM12 cells assessed as reduction in cell viability measured after 72 hrs by MTS assay. (In general: Formazan colour is commonly taken as a measure of viable cells.)
The target in the next assay is Aurora kinase B (Homo sapiens, UniProt Q96GD4). The assay is described as follows: Inhibition of recombinant full length His-tagged human AURB expressed in baculovirus expression system using tetra-LLRASLG peptide as substrate incubated for 180 mins in presence of ATP. Also on record: species or system Sf9.
Chain of Aurora kinase B (Q96GD4 whole entry): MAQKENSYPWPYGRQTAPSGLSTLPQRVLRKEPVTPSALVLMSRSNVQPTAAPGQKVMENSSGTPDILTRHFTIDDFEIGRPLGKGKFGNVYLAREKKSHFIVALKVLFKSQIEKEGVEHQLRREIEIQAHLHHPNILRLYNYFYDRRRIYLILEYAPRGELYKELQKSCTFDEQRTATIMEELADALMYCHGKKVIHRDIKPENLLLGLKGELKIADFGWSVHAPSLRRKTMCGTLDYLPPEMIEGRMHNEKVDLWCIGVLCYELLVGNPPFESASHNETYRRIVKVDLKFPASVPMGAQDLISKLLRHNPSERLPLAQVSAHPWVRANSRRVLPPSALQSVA
The target of assay [1] is T2, High affinity nerve growth factor receptor (Homo sapiens, UniProt P04629).
T2 sequence (P04629 whole entry): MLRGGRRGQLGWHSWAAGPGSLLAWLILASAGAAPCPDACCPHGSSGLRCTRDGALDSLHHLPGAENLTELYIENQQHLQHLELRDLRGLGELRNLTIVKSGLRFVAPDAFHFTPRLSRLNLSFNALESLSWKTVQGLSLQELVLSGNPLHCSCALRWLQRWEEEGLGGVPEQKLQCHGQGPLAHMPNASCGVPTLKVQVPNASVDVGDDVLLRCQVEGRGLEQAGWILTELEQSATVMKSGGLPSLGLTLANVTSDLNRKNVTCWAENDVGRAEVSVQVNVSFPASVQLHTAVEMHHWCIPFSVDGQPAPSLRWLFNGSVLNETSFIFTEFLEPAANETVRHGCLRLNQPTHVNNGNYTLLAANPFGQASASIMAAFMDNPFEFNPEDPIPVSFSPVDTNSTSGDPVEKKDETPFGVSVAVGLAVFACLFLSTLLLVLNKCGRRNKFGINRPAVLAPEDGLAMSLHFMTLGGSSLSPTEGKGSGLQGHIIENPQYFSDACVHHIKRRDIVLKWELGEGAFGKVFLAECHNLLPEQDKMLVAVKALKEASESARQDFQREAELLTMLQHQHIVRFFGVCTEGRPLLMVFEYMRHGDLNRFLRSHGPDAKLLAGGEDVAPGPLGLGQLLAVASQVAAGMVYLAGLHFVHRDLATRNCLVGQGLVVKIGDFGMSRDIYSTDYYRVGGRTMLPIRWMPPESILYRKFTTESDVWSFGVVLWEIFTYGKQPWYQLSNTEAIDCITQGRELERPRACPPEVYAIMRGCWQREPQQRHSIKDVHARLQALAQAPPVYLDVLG
Description: Inhibition of wildtype human TRKA using poly (Glu,Tyr) 4:1 as substrate in presence of [gamma-33P]ATP by hotspot kinase assay
In assay [2] the target is T2, High affinity nerve growth factor receptor. This is another data set of the same source.
Assay [3] concerns the target BDNF/NT-3 growth factors receptor (Homo sapiens, UniProt Q16620). Kind of assay: Inhibition of TRKB (unknown origin).
Assay [4] has as its target NT-3 growth factor receptor (Homo sapiens, UniProt Q16288). The assay is described as follows: Inhibition of TRKC (unknown origin).
Assay [5] is described as follows: Inhibition of TRKC G623R mutant (unknown origin) in presence of [gamma-33P]ATP by hotspot kinase assay. Also on record: species or system Homo sapiens.
Assay [6] can be described thus: Inhibition of TRKA L657M mutant (unknown origin) in presence of [gamma-33P]ATP by hotspot kinase assay. Also on record: species or system Homo sapiens.
Assay [7] is described as follows: Inhibition of TRKA G595R/A608D double mutant (unknown origin) bin presence of [gamma-33P]ATP by hotspot kinase assay. Also on record: species or system Homo sapiens.
The nature of assay [8]: Inhibition of TRKC G696A mutant (unknown origin) in presence of [gamma-33P]ATP by hotspot kinase assay. Further details: species or system Homo sapiens.
The nature of assay [9]: Inhibition of TRKA […]/G667C double mutant (unknown origin) in presence of [gamma-33P]ATP by hotspot kinase assay. Also on record: species or system Homo sapiens.
Assay [10] in a line: Inhibition of TRKA F589L mutant (unknown origin) in presence of [gamma-33P]ATP by hotspot kinase assay. Further details: species or system Homo sapiens.
Assay [11] is described as follows: Inhibition of TRKA G595R/L657M double mutant(unknown origin) in presence of [gamma-33P]ATP by hotspot kinase assay. Also on record: species or system Homo sapiens.
A short description of assay [12]: Inhibition of TRKC L686M mutant (unknown origin) in presence of [gamma-33P]ATP by hotspot kinase assay. Also on record: species or system Homo sapiens.

Chain of NT-3 growth factor receptor (Q16288 whole entry): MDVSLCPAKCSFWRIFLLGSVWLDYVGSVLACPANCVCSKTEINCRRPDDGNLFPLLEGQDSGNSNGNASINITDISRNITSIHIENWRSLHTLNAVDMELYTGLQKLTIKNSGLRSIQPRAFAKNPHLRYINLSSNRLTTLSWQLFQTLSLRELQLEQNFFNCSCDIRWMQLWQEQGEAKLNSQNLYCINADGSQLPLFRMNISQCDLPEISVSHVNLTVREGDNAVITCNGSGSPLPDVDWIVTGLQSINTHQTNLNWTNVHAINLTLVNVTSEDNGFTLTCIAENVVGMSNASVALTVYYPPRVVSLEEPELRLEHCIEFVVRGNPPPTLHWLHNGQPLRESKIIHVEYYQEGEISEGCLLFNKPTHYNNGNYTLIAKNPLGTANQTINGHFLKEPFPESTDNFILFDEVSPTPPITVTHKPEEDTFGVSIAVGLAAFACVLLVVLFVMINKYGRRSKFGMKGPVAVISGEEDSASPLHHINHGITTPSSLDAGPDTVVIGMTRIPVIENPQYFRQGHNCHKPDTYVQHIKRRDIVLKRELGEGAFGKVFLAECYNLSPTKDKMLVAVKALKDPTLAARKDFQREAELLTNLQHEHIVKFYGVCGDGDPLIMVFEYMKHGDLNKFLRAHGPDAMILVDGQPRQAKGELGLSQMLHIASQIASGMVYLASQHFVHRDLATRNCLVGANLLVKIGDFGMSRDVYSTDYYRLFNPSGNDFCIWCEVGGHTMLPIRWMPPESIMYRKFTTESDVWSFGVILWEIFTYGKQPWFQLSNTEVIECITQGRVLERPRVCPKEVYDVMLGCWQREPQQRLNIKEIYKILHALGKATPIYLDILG
Chain of BDNF/NT-3 growth factors receptor (Q16620 whole entry): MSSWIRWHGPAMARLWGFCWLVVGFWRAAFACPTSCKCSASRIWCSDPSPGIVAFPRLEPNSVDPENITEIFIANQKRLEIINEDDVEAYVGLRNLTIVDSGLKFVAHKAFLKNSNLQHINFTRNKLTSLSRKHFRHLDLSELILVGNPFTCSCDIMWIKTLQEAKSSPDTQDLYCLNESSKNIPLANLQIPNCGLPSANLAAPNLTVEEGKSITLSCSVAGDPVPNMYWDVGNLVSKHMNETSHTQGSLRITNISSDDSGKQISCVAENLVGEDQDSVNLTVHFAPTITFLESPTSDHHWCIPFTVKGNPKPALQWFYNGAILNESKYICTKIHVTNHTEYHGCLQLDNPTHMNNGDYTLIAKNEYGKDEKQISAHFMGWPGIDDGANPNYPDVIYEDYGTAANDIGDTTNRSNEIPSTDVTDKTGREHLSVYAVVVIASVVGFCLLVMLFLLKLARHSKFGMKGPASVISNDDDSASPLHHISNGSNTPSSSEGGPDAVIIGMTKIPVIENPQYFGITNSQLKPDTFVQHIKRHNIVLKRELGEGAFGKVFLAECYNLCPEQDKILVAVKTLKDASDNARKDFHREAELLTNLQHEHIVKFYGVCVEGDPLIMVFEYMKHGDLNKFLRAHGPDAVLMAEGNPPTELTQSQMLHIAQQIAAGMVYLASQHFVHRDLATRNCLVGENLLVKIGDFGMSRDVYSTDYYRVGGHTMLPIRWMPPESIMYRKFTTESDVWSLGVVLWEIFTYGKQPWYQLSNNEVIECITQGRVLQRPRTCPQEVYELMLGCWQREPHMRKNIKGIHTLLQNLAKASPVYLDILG
Description for Aurora kinase A: Inhibition of GST-tagged AURA Ser123 to 401 residues) (unknown origin) expressed in Sf9 insect cells using tetra-LLRASLG peptide as substrate incubated for 90 mins in presence of ATP

As for `CCOc1cc2ncnc(NCCc3ccc(NC(=O)Nc4ccc(F)c(Cl)c4)cc3)c2cc1F`, the midpoint of inhibition at Aurora kinase A, the IC50, lay at 0.044 µM.
With `CCOc1cc2ncnc(NCc3ccc(NC(=O)Nc4ccccc4)cc3)c2cc1F`, the IC50 against Aurora kinase A came to 0.008 µM; with KM12 (Homo sapiens, KM12, 72 h) it was 2.4 µM.
The compound `CCOc1cc2ncnc(NCCc3ccc(NC(=O)Nc4cccc(Cl)c4)cc3)c2cc1F` came in with an IC50 on Aurora kinase A of 0.0269 µM.
For `CCOc1cc2ncnc(NCCc3ccc(NC(=O)Nc4cc(Cl)ccc4OC)cc3)c2cc1F`, the IC50 on Aurora kinase B was found to be 0.512 µM; against Aurora kinase A, 0.352 µM.
With `CCOc1cc2ncnc(NCc3ccc(NC(=O)Nc4cccc(Cl)c4)cc3)c2cc1F`, the IC50 at Aurora kinase A came out at 0.002 µM; with KM12 (Homo sapiens, KM12, 72 h), 1.27 µM.
In the case of `CCOc1cc2ncnc(Nc3ccc(NC(=O)Nc4cccc(Cl)c4)cc3)c2cc1F`, the IC50 on Aurora kinase A is 0.156 µM.
As to `COc1cc2c(Oc3ccc(NC(=O)C4(C(=O)Nc5ccc(F)cc5)CC4)cc3F)ccnc2cc1OCCCN1CCOCC1` [FORETINIB], the IC50 in assay [1] was 0.00297 µM.
Consider `CCOc1cc2ncnc(NCCc3ccc(NC(=O)Nc4ccccc4)cc3)c2cc1F`, for which the concentration for half-maximal inhibition (IC50) against Aurora kinase A was 0.0292 µM; in assay [2] it was > 9 µM; in the assay with KM12 (km12) it was 0.324 µM.
Regarding `CCOc1cc2c(NCCc3ccc(NC(=O)Nc4ccccc4)cc3)ncnc2cc1F`, the IC50 on Aurora kinase A came to 0.0656 µM; in the assay on KM12 (km12), 0.324 µM.
As for `COc1cc2ncnc(NCCc3ccc(NC(=O)Nc4ccccc4)cc3)c2cc1OC`, on Aurora kinase A, the concentration for half-maximal inhibition (IC50) is 0.023 µM.
`CCOc1cc2ncnc(NCCc3ccc(NC(=O)Nc4ccc(Cl)c(C(F)(F)F)c4)cc3)c2cc1F`: at Aurora kinase A, half-maximal inhibition (IC50) was put at 0.349 µM.
For `CCOc1cc2ncnc(NCCc3ccc(NC(=O)Nc4cc(C(F)(F)F)ccc4OC)cc3)c2cc1F`, the IC50 came out at 0.548 µM on Aurora kinase B and 0.454 µM on Aurora kinase A.
On Aurora kinase A, `O=C(Nc1ccccc1)Nc1ccc(CCNc2ncnc3ccccc23)cc1` showed an IC50 of 0.14 µM.
Consider `O=C(Nc1ccccc1)Nc1ccc(CCNc2ncnc3cc(F)c(F)cc23)cc1`, for which the IC50 in the assay with KM12 (Homo sapiens, KM12, 72 h) amounted to 1.52 µM.
On to `CN(C)CCCOc1ccc2c(NCCc3cnc(NC(=O)Nc4cccc(Cl)c4)s3)ncnc2c1`, for which the IC50 is 0.0056 µM at Aurora kinase A; 0.00178 µM in [3]; 0.0368 µM in assay [2]; > 10 µM in the assay with KM12 (Homo sapiens, KM12, 72 h); 0.00021 µM in assay [4].
Regarding `CCOc1cc2ncnc(Nc3ccc(NC(=O)Nc4ccccc4)cc3)c2cc1F`, the IC50 was found to be 0.338 µM at Aurora kinase A and 2.02 µM with KM12 (Homo sapiens, KM12, 72 h).
As for `O=C(Nc1cnn2ccc(N3CCC[C@H]3c3cc(F)ccc3F)nc12)N1CC[C@@H](O)C1`, the half-inhibitory concentration (IC50) in assay [5] was 0.209 µM; in assay [6], 0.0207 µM; in [7], 0.0802 µM; in assay [8], 0.00328 µM; in assay [9], > 10 µM; in [10] it was 0.0521 µM. The IC50 in [11] is 2.51 µM; in [12], 0.15 µM.
At Aurora kinase A, `CCOc1cc2ncnc(NCCc3ccc(NC(=O)Nc4cccc(F)c4)cc3)c2cc1F` gave a half-maximal inhibitory concentration (IC50) of 0.006 µM.
The compound `CCOc1cc2ncnc(NCCc3ccc(NC(=O)Nc4cccc(C(F)(F)F)c4)cc3)c2cc1F` gave an IC50 against Aurora kinase A of 0.0632 µM.
Take `COc1cc2nccc(Oc3ccc(NC(=O)C4(C(=O)Nc5ccc(F)cc5)CC4)cc3)c2cc1OC` [CABOZANTINIB]: the IC50 in [1] turned out to be 0.0723 µM.
Compound `CCOc1cc2c(NCCc3ccc(NC(=O)Nc4cccc(Cl)c4)cc3)ncnc2cc1F` returned an IC50 against Aurora kinase A of 0.108 µM.

In general, IC50 refers to the concentration that gives 50% inhibition.
